According to US3957788A (priority 1974, dated 1976):
Where two headings read alike, the source gives them in different places.

How the values were obtained:
[1] = test system: male mice of ddN strain; experiment: animal or person; format: in vivo; conditions: Mus musculus, read-out: D'Amour-Smith method, analgesic ED50
[2] = test system: female mice of ddN strain; conditions: mouse, in vivo
[3] = test system: male rats of Wistar strain; experiment: animal or person; format: in vivo; conditions: Rattus norvegicus, po, read-out: Haffner method, analgesic ED50

Cc1c(N(C)C)c(=O)n(-c2ccccc2)n1C [compound 5, Aminopyrine]
ED50 ([1]; po): ≥ 640 mg/kg
ED50 ([1]; sc): 233 mg/kg
Phenylquinone method (analgesic activity) [2]: 53.3
ED50 [3]: > 2560 mg/kg
